#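 Following 48 hours of exposure in 96-well plates, responses at five concentrations were used to interpolate endpoints linearly. TGI marks complete inhibition of growth.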
# Legend:
# Assay in all cases: growth of human tumour cells (NCI), 48 h
# M14 melanoma = test system: M14 melanoma
# COLO 205 colon = test system: COLO 205 colon
# CAKI-1 renal = test system: CAKI-1 renal
# OVCAR-5 ovarian = test system: OVCAR-5 ovarian
# NCI/ADR-RES ovarian = test system: NCI/ADR-RES ovarian
# IGROV1 ovarian = test system: IGROV1 ovarian
# EKVX NSCLC = test system: EKVX NSCLC
# MCF7 breast = test system: MCF7 breast
# A498 renal = test system: A498 renal
# SK-MEL-28 melanoma = test system: SK-MEL-28 melanoma
# 786-0 renal = test system: 786-0 renal
# HOP-62 NSCLC = test system: HOP-62 NSCLC
# HCT-15 colon = test system: HCT-15 colon
# NCI-H460 lung = test system: NCI-H460 lung
# CCRF-CEM leukemia = test system: CCRF-CEM leukemia
# SK-MEL-2 melanoma = test system: SK-MEL-2 melanoma
# MDA-MB-231 breast = test system: MDA-MB-231 breast
SMILES,TGI (M14 melanoma) [µM],TGI (COLO 205 colon) [µM],TGI (CAKI-1 renal) [µM],TGI (OVCAR-5 ovarian) [µM],TGI (NCI/ADR-RES ovarian) [µM],TGI (IGROV1 ovarian) [µM],TGI (EKVX NSCLC) [µM],TGI (MCF7 breast) [µM],TGI (A498 renal) [µM],TGI (SK-MEL-28 melanoma) [µM],TGI (786-0 renal) [µM],TGI (HOP-62 NSCLC) [µM],TGI (HCT-15 colon) [µM],TGI (NCI-H460 lung) [µM],TGI (CCRF-CEM leukemia) [µM],TGI (SK-MEL-2 melanoma) [µM],TGI (MDA-MB-231 breast) [µM]
O=c1cc2oc3ccc4ccccc4c3cc-2c(=O)[nH]1,32.2,30,28.8,32.4,37.1,27.4,33.8,38.5,31.8,32.7,26.7,25.2,22.9,53.1,2.6,31.6,
CC1(C)C2CCC1(C)C(NC(=O)CCN1CCOCC1)C2 (stereo not drawn),> 100,> 100,> 100,> 100,,> 100,> 100,> 100,> 100,> 100,> 100,> 100,,> 100,> 100,,> 100
CCC(=O)NCC1(c2c[nH]c3ccccc23)SCCS1,> 100,> 100,> 100,> 100,,> 100,> 100,,> 100,> 100,> 100,> 100,> 100,> 100,> 100,> 100,
COc1ccccc1OCc1nnc(SCC(=O)O)n1-c1ccccc1,> 100,> 100,,> 100,,> 100,> 100,,> 100,> 100,> 100,> 100,> 100,> 100,> 100,> 100,
CC(=O)C1CC2(c3ccccc3)C(=O)c3ccccc3N2O1 (stereo not drawn),> 100,> 100,,,,> 100,> 100,,> 100,> 100,> 100,> 100,> 100,,> 100,,
N[C@H]1CCc2c1nc1c(c2-c2ccccc2)CC[C@@H]1N,31.1,44.2,33.7,59.7,> 100,31.4,> 100,64.3,,,28.6,> 100,> 100,> 100,40.7,40.1,66
CCOP(=O)(C/C(=N/NC(C)(C)C)C(=O)Nc1nc2ccc(C)cc2s1)OCC,> 100,> 100,> 100,> 100,,> 100,> 100,,> 100,> 100,> 100,> 100,> 100,> 100,> 100,> 100,
CC(=O)NC1C(OCc2ccccc2)OC(CO)C(O)C1OCC(=O)NC(C)C(=O)NC(CCC(=O)OCCNC(=O)c1cccc2cc3ccccc3nc12)C(N)=O (stereo not drawn),42.1,64.8,30.2,69.3,68.1,48.9,62.2,> 100,,43.3,70.8,68.9,33.6,57.8,,70.9,
O=c1[nH]ncc2[nH]c3c(c12)CCCc1ccccc1-3,> 100,53.2,> 100,> 100,> 100,> 100,51.7,> 100,66.3,,> 100,> 100,> 100,> 100,> 100,> 100,
Cc1ccccc1N=Nc1ccc(N=Nc2c(O)ccc3cc(S(=O)(=O)O)cc(S(=O)(=O)O)c23)c(C)c1,> 100,> 100,> 100,> 100,> 100,> 100,> 100,> 100,,> 100,> 100,> 100,> 100,> 100,> 100,> 100,> 100
CC1(Br)C(=O)NC(=O)N([C@H]2C[C@H](O)[C@@H](CO)O2)C1N=[N+]=[N-] (stereo partly drawn),> 100,> 100,> 100,> 100,,> 100,> 100,,> 100,> 100,> 100,> 100,> 100,> 100,> 100,> 100,
CN(C)CC1CCC(CN(C)C)C1=NO (stereo not drawn),> 100,> 100,> 100,> 100,,> 100,> 100,,,> 100,> 100,> 100,> 100,> 10,> 100,,
Oc1ccc2ccccc2c1N=Nc1ccc(N=Nc2ccccc2)cc1,> 100,> 100,> 100,> 100,> 100,> 100,> 100,,> 100,> 100,> 100,> 100,> 100,,> 100,> 100,> 100
O=c1[nH]nc2c3n[nH]c(=O)n3c3ccccc3n12,> 100,> 100,> 100,> 100,,> 100,> 100,,> 100,> 100,> 100,> 100,> 100,> 100,> 100,> 100,
C/C(CC(=O)Nc1ccc(C)cc1)=N\NC(N)=S,> 100,> 100,,> 100,,> 100,> 100,,> 100,> 100,> 100,> 100,,> 100,> 100,> 100,
C=C(Cl)C(Br)(CCl)CCC(Cl)C(C)C (stereo not drawn) (tested in a mixture with another compound),3.87,5,7.54,6.69,,3.73,29.6,,31.6,3.21,2.74,4.76,,3.42,> 100,2.97,2.49

SMILES,TGI (M14 melanoma) [µM],TGI (COLO 205 colon) [µM],TGI (CAKI-1 renal) [µM],TGI (OVCAR-5 ovarian) [µM],TGI (NCI/ADR-RES ovarian) [µM],TGI (IGROV1 ovarian) [µM],TGI (EKVX NSCLC) [µM],TGI (MCF7 breast) [µM],TGI (A498 renal) [µM],TGI (SK-MEL-28 melanoma) [µM],TGI (786-0 renal) [µM],TGI (HOP-62 NSCLC) [µM],TGI (HCT-15 colon) [µM],TGI (NCI-H460 lung) [µM],TGI (CCRF-CEM leukemia) [µM],TGI (SK-MEL-2 melanoma) [µM],TGI (MDA-MB-231 breast) [µM]
COc1cc([C@@H]2c3cc4c(cc3[C@@H](NC(=O)c3ccc(C(C)=O)cc3)C3COC(=O)[C@@H]32)OCO4)cc(OC)c1O (stereo partly drawn),31.1,19.5,20.3,7.69,,5.71,17.6,,5.87,33.6,1.81,1.35,17.3,1.53,> 100,8.03,
CCCN(CCC)C(=O)Cc1c2n(c3ccccc13)CCCc1ccccc1-2,26.4,29.1,28.4,,,,28.5,,,29.9,30.6,30.3,23.8,29.3,37.2,25.8,
O=S(=O)(O)c1cc(O)c2c(O)c(N=Nc3ccc(/C=C/c4ccc(N=Nc5c(S(=O)(=O)O)cc6cc(S(=O)(=O)O)cc(O)c6c5O)cc4S(=O)(=O)O)c(S(=O)(=O)O)c3)c(S(=O)(=O)O)cc2c1,> 100,> 100,> 100,> 100,,> 100,> 100,,> 100,> 100,> 100,> 100,> 100,> 100,> 100,> 100,
CCN(CC)CCNC(=O)c1ccccc1Nc1c(Cl)cccc1Cl,34.5,26.7,,20.4,,36.1,26.6,,,33,19,24.2,26,16,35.2,,
CN1C(=O)c2cccc3c([N+](=O)[O-])ccc(c23)C1=O,23.1,19.8,5.17,13.4,,9.43,29.4,,5.64,32.9,21,24.7,11,11.7,39.5,24.8,
C1CSCCSS[C@@H]2CCCCC2SC1 (stereo partly drawn),> 100,> 100,,> 100,> 100,> 100,> 100,> 100,,> 100,> 100,> 100,> 100,> 100,> 100,,> 100
CC1=CC(=O)c2cccc(O)c2C1=O,3.25,4.36,3.29,14.8,,26,8.68,,33.5,7.81,3.09,30.9,3.04,18.9,14.7,4.57,3.15
Cc1nnc2nc(-c3ccc(Cl)cc3Cl)cc(-c3ccc(Cl)cc3)n12,> 100,49.6,> 100,> 100,> 100,,,> 100,,40.8,> 100,> 100,> 100,> 100,> 100,,> 100
COC(=O)C(=O)C(C(=O)C(=O)Nc1ccc([N+](=O)[O-])cc1C#N)c1nc2ccc([N+](=O)[O-])cc2[nH]c1=O (stereo not drawn),> 100,> 100,> 100,> 100,,,> 100,,> 100,,> 100,> 100,> 100,> 100,> 100,> 100,
Cc1ccc(-c2n[nH]c(CC#N)n2)cc1,> 100,> 100,> 100,> 100,> 100,> 100,> 100,> 100,> 100,> 100,> 100,> 100,> 100,> 100,> 100,> 100,
C/C(=N\O)C(CN(C)C)C(c1ccccc1)c1c(O)c2ccccc2oc1=O (stereo not drawn),> 100,> 100,> 100,> 100,,> 100,> 100,,> 100,> 100,> 100,> 100,> 100,,> 100,> 100,
CCOC(=O)NC(=O)c1cn(-c2ccc(CCOC(=O)CCCCCCCCC(=O)OCCc3ccc(-n4cc(C(=O)NC(=O)OCC)c(=O)[nH]c4=O)cc3)cc2)c(=O)[nH]c1=O,> 100,> 100,,> 100,,> 100,> 100,,,> 100,> 100,> 100,> 100,> 100,> 100,> 100,
COc1cc2c(cc1OC)[C@]1(O)C(=O)c3ccc4c(c3O[C@@H]1CO2)C[C@H](C(C)(C)O)O4,> 100,> 100,,> 100,,> 100,> 100,,> 100,> 100,> 100,> 100,,> 100,> 100,> 100,
CCN(CC)CC1CCCCN1CC(=O)N1c2ccc(Br)cc2C(=O)Nc2cccnc21 (stereo not drawn),> 100,> 100,> 100,> 100,,> 100,> 100,> 100,> 100,> 100,> 100,> 100,> 100,> 100,> 100,> 100,> 100
O=c1oc2ccccc2c(O)c1C(c1ccc([N+](=O)[O-])cc1)c1c(O)c2ccccc2oc1=O,,> 100,> 100,,> 100,> 100,> 100,,> 100,> 100,> 100,> 100,> 100,> 100,> 100,> 100,> 100

# — PubChem BioAssay (NCI)
